What all share (type): cell-based
The target of test [1] is HLA-A2*0201 (Homo sapiens, UniProt P04439, D140Y/D185E/D98H/E176V/E277Q/G131W/G231S/I119V/I121R/I166T/I218V/L300P/L318F/N151K/N90K/P208A/P217A/Q86G/Q94H/R138H/R169H/T345S). As to conditions: peptide at 100, 10 and 1 μM; compared with positive control influenza M1 peptide; three independent experiments.
Test [2] has as its system IFN-γ. Description: Cytokine production by splenocytes of immunised FVB/N-DR1 mice, ELISA. The procedure:
(§1) After 6 days, the spleens from immunised animals were collected and the cells flushed out using T cell media (RPMI+10% FCS+20 mM HEPES buffer+50 μM 2-mercaptoethanol+50 U/ml penicillin/streptomycin+0.25 μg/ml fungizone). The remaining splenic tissue was digested using an enzyme cocktail (0.1 U/ml DNAase (Sigma)+1.6 mg/ml collagenase (Sigma)) for 1 hour at 37° C. The cell suspension obtained was pooled with the flushed cells, washed once, and the splenocytes were plated in 24 well plates with 10 μg/ml of peptide at a density of 2.5×10^6/ml for FVB/N-DR1 or 3.5×10^6/ml for C57BL/6-DR4. Cells were also cultured with an irrelevant peptide as a control. To measure cytokine production, culture supernatants were collected on day 2 and 5 of the culture for the measurement of cytokine by ELISA.
(§2) Aliquots of supernatants were removed from CTL cultures on days 1 and 5 and on days 2 and 5 from CD4′ T cell cultures and stored at −20° C. until required. ELISA was used to quantitate concentrations of murine IFN-γ and IL-5 (R&D systems, UK).
Background: ELISA stands for enzyme-linked immunosorbent assay.

The test system of test [3] is HLA-DRβ1*0401. Description: Proliferation of splenocytes from immunised HLA-DR4 mice with peptide-pulsed BM-DC (tritiated thymidine). As to conditions: for effect of anti-HLA-DR antibody (L243) on proliferation: not blocked by isotype control; for proliferation of splenocytes from immunised HLA-DR4 mice: re-stimulated in vitro with peptide for 5 days; for number of HLA-DR4 mice whose splenocytes demonstrated specific proliferation: responding/total mice, after re-stimulation in vitro with relevant peptide. As for the experimental part:
(§3) HLA-A2.1/K^b mice were immunised with an emulsion consisting of 100 μg of the putative class-I peptide epitope and 100 μg of non-specific class-II peptide derived from hepatitis B virus in 50% incomplete Freund's adjuvant (IFA). HLA-DR4- and HLA-DR1-transgenic mice were immunised twice at one week interval with 100 μg of class-II peptide emulsified in 50% incomplete Freund's adjuvant (IFA) and 50% PBS. All vaccine were delivered as a 100 μl intradermal bolus inoculum at the base of the tail.
(§4) 0DC were generated using a method adapted from Inaba et al (Inaba et al. 1992). Briefly, femurs and tibias were harvested aseptically from non-immunised DR1 or DR4 transgenic mice and placed in sterile PBS supplemented with 50 IU/ml penicillin, 50 μg/ml streptomycin, and 0.25 μg/ml fungizone. The marrow was flushed out of the bone using BM-DC media (RPMI 1640 medium supplemented with 2 mM glutamine, 5% FCS, 10 mM Hepes, 501M 2-ME, 50 μg/ml penicillin, 50 μg/ml streptomycin, 0.25 μg/ml fungisone and 10% of supernatant collected from X-63 cells). The cells were washed once in BM-DC media and plated in 24-well plates at 10^6/well in 1 ml DC media and incubated at 37° C. in a 5% CO2 humidified atmosphere. On days 2 and 4, the non-adherent cells (T cells, B cells, granulocytes) were removed, and the remaining cells were cultured in fresh DC medium. After 7-9 days, clusters of loosely adherent DC were dislodged and collected by gently pipetting, before being washed and seeded in 24-well plates at 0.5×10^6 cells/well in 1 ml DC media. Peptides were added at 1 μg/well and the plates were incubated at 37° C. 1 μg/ml of LPS was added after 5 hours, and the plates were incubated overnight at 37° C. in a 5% CO2 in air-humidified atmosphere.
as §1
[…] CD8+ T cells were depleted from the cell suspension using anti-CD8+ antibody coupled with magnetic beads (Dynal, UK) as per the manufacturers instructions. Cells were then washed in PBS and resuspended at 5×10^5/ml in T cell medium. 100 μl of T cells was then added to all wells. Anti-DR antibody (L243) or isotype control were added to some wells to confirm the MHC specificity of the T-cell response. LPS-treated dendritic cells were harvested, washed and incubated in 1 ml of DC medium with the addition of 10 íg of peptide at 37° C. for 5 hours. After washing, 10^3 peptide-pulsed DC were added to the relevant wells of lymphocyte cultures in 50 íl media. These plates were then incubated for 3 days at 37° C. in a 5% CO2 in air-humidified atmosphere. Tritriated thymidine was then added to the culture and incubated again for 18 hours. Plates were harvested onto 96 Uni/Filter (Packard), the scintillation liquid (Microscint 0, Packard) was added and the plates were counted on a Top-Count counter (Packard). Results are expressed in counts per minute (cpm) and as a means of the triplicate wells. Statistical analysis was performed using unpaired Student's t test. […]

In test [4] the test system is HLA-DRβ1*0101. Description: Proliferation of splenocytes from immunised HLA-DR1 mice with peptide-pulsed BM-DC (tritiated thymidine). As to conditions: for proliferative response of splenocytes from HLA-DR1 mice: FVB/N-DR1 / HLA-DRβ1*0101 transgenic mice; for number of HLA-DR1 mice whose splenocytes demonstrated specific proliferation: responding/total mice, after re-stimulation in vitro with relevant peptide. As for the experimental part: as §3, §4, §1
Splenocytes from immunised animals cultured for 6 days in the presence of 10 μg of the test peptide were harvested, washed and counted. CD8+ T cells were depleted from the cell suspension using anti-CD8+ antibody coupled with magnetic beads (Dynal, UK) as per the manufacturers instructions. Cells were then washed in PBS and resuspended at 5×10^5/ml in T cell medium. 100 μl of T cells was then added to all wells. Anti-DR antibody (L243) or isotype control were added to some wells to confirm the MHC specificity of the T-cell response. LPS-treated dendritic cells were harvested, washed and incubated in 1 ml of DC medium with the addition of 10 íg of peptide at 37° C. for 5 hours. After washing, 10^3 peptide-pulsed DC were added to the relevant wells of lymphocyte cultures in 50 íl media. […] Plates were harvested onto 96 Uni/Filter (Packard), the scintillation liquid (Microscint 0, Packard) was added and the plates were counted on a Top-Count counter (Packard). […]

Test [5] relates to IFN-γ. Description: Cytokine production by splenocytes of immunised C57BL/6-DR4 mice, ELISA. As to conditions: relevant versus irrelevant peptide. As for the experimental part:
as §1, §2
We further investigated HLA-DR class-II restricted responses to PAP peptides that were predicted to bind to HLA-DR1 and HLA-DR4 according to the evidence-based computer assisted algorithm […]. The peptides displaying high binding scores for both HLA-DR alleles were selected and further studied (Table 1). C57BL/6-DR4 mice were immunised with these predicted HLA-DR-restricted PAP and the proliferative and IFN-γ response to peptide stimulation in vitro was monitored by proliferation assays and cytokine measurements. PAP. 64 and PAP.

“Also recorded” adds a separate entry of the source.

Here are results for five sequences from US20100278849A1, “PROSTATIC ACID PHOSPHATASE ANTIGENS” (priority 2004, published 2010).

With “ALASCFCFFC (listed as Homo sapiens) [PAP.15]”, the “binding to HLA-A2 (T2 cells)” value in test [1] is on record as “no significant binding”.
The same measure, in the same setting: as for “IMYSAHDTTV (listed as Homo sapiens) [PAP.284]”, the entry is “Weak binding”.
For “PQGFGQLTQLGMEQH (listed as Homo sapiens) [PAP.64]”, the “IFN-γ or IL-50 (cytokine) production of splenocytes” value in test [2] was “failed, with the exception of one out six experiments”. In test [3], the “effect of anti-HLA-DR antibody (L243) on proliferation” value (“effect of anti-HLA-DR antibody (L243)” below) is recorded as “inhibited by the addition of L243 antibody”, the “proliferation of splenocytes from immunised HLA-DR4 mice” value is recorded as “Specific proliferation” and the “number of HLA-DR4 mice whose splenocytes demonstrated specific proliferation” value is 2/5. Also, in test [3] (listed as PAP. 64), the “effect of anti-HLA-DR antibody (L243)” value is “blocked in the presence of L243 antibody” and the “number of HLA-DR4 mice whose splenocytes demonstrated specific proliferation” value is 2 out of 5. In addition, in test [4], the “proliferative response of splenocytes from HLA-DR1 mice” value is on record as “failed, with the exception of one out six experiments” and the “number of HLA-DR1 mice whose splenocytes demonstrated specific proliferation” value is 1/6. For the same sequence, in test [5], the “IFN-γ production by splenocytes” value is “not produced specifically”.
For “SKVYDPLYSESVHNF (listed as Homo sapiens) [PAP.207]”, the “IFN-γ or IL-50 (cytokine) production of splenocytes” value in test [2] is given as “failed, with the exception of one out six experiments”. In test [3], the “effect of anti-HLA-DR antibody (L243)” value was “inhibited by the addition of L243 antibody”, the “proliferation of splenocytes from immunised HLA-DR4 mice” value was “Specific proliferation” and the “number of HLA-DR4 mice whose splenocytes demonstrated specific proliferation” value is reported as 1/6. In test [3] (listed as PAP. 207), the “effect of anti-HLA-DR antibody (L243)” value was “blocked in the presence of L243 antibody” and the “number of HLA-DR4 mice whose splenocytes demonstrated specific proliferation” value was 1 out of 6. Also, in test [4], the “proliferative response of splenocytes from HLA-DR1 mice” value is given as “failed, with the exception of one out six experiments” and the “number of HLA-DR1 mice whose splenocytes demonstrated specific proliferation” value was 0/5. The “IFN-γ production by splenocytes” value in test [5] was “not produced specifically”.
For the sequence “VLAKELKFV (listed as Homo sapiens) [PAP.30, class-I PAP peptide already known in the art (Peshwa, 1998), reference compound]”, the “binding to HLA-A2 (T2 cells)” value in test [1] is “strong binding; also recorded: moderate HLA-A2 binding”.
